From patent US12133839B2, “Cannabinoid derivatives and methods for their preparation” (priority 2018, dated 2024)

Key:
[1] = tested on: Cytochrome P450 (Cy-P450)
Cy-P450 = conditions: compared with CBD

CCCCCc1cc(O)c(C2CC(C)CCC2C(C)C)c(O)c1C(C)=O (centres unmarked) [Tetradhydro 2′-acetyl CBD (III), [Ar]-Acetyl Tetrahydrocannabidiol]
time for which formation of 11-Hydroxy THC is prevented (enhanced CBD effect) [1]: about one

CCCCCc1cc(O)c(C2CC(C)CCC2C(C)C)c(O)c1 (centres unmarked) [Tetrahydro CBD (II), Tetrahydrocannabidiol]
duration of the increased CBD activity [1]: only a few minutes | increase in CBD activity, in effect and duration ([1]; compared with CBD): approximately double | oxidation by Cy-P450 (Cy-P450): slower oxidation

CCCCCc1cc(O)c(C2CC(C)CCC2C(C)C)c(O)c1C(=O)CC (centres unmarked) [[Ar]-Propionyl Tetrahydrocannabidiol]
time for which THC metabolism is delayed [1]: up to 48 hours
